What was measured:
[1] = Stress testing (influencing factors), total impurity content; assay type: physicochemical
[2] = Pressure sensitivity assay (tabletting, XRPD); assay type: physicochemical; conditions: pressure 200, 300 and 500 kg/cm^2, 3 min
[3] = Grinding sensitivity assay (XRPD); assay type: physicochemical; conditions: manual grinding in a mortar, 1 min
DVS assay = assay type: physicochemical; conditions: 80% RH, 25° C.
Description: A Surface Measurement Systems Dynamic Vapor Sorption Analyzer (model of DVS Resolution) was used with an N2 flow rate: 200 sccm, detection temperature: 25° C., equilibrium time range: 5 min to 360 min, RH gradient: 10% (50% RH to 90% RH, 90% RH to 0% RH to 90% RH), and 5% (90% RH to 95% RH, 95% RH to 90% RH) to obtain dynamic vapor sorption analysis pattern.

[4] = test system: catalytic subunit of PI3K (α-subunit compared to β-subunit); conditions: cited from earlier work
PI3Kα = PI3Kα (Homo sapiens, UniProt P42336); experiment: PI3Kα kinase assay (ADP-Glo, luminescence); assay type: biochemical; conditions: final ATP concentration 10 μM; read-out: IC50 of Compound PI3K α
PI3Kα, sequence (P42336 whole entry): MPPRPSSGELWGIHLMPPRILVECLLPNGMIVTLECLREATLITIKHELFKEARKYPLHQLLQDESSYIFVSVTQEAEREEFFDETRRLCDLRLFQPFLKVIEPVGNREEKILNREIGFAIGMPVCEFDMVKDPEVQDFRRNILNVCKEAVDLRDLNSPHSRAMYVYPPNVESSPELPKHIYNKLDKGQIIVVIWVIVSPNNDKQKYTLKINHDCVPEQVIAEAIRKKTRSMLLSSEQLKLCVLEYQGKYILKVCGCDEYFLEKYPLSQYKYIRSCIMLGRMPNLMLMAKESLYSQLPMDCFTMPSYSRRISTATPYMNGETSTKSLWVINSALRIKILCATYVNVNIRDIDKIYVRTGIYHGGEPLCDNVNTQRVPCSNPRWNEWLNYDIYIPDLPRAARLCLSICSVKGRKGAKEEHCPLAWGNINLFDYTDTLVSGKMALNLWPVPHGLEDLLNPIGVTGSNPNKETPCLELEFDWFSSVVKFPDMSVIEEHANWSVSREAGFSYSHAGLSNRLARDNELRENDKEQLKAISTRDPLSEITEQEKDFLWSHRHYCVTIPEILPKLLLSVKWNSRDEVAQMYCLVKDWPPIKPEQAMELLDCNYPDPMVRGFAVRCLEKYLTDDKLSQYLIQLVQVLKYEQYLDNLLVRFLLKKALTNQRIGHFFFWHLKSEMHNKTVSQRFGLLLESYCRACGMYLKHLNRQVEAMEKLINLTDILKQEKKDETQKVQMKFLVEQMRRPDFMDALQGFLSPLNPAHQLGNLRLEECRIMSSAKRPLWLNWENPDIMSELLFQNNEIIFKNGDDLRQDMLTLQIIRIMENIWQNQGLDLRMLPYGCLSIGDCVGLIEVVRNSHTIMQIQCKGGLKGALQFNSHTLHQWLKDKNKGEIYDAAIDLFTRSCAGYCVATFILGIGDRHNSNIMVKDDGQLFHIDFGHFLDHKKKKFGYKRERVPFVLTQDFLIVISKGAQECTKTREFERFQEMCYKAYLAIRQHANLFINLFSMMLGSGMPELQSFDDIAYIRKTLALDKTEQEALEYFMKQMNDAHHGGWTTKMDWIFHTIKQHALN
PI3Kα, sequence (P27986 whole entry partner): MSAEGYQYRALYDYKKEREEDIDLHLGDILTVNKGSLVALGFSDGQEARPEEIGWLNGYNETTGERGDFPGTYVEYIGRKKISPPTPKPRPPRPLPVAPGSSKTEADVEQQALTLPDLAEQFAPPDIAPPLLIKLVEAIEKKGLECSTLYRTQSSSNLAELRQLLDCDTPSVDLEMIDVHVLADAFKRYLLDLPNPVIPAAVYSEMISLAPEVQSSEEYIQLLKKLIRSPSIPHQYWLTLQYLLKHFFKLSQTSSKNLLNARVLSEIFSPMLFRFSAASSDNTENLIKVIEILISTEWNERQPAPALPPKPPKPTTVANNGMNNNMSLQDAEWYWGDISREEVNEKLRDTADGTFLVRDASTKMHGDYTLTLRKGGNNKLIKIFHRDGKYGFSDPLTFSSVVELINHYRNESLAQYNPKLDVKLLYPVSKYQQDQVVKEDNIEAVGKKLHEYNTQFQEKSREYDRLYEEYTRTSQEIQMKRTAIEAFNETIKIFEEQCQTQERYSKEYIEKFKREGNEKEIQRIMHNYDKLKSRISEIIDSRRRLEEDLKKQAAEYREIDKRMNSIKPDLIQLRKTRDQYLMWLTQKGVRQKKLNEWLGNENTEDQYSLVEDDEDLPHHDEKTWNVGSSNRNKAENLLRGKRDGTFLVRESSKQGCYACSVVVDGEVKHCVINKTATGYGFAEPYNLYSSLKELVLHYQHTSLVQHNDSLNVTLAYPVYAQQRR
Description: (§1) PI3Kα, PI3Kβ, PI3Kγ kinases were enzymatically reacted with their substrates ATP and PIP2:3PS, and the amount of the reaction products were determined to reflect the enzymatic activities of PI3Kα, PI3Kβ, PI3Kγ using ADP-Glo reagent and luminescence method (final ATP concentration of 10 μM). The inhibitory activities of Compound 1 of the present invention on PI3Kα, PI3Kβ and PI3Kγ kinases were tested using the above method.
(§2) Reagents: basic kinase buffer (pH 7.5); PI3Kα, PI3Kβ, PI3Kγ enzyme solutions; solution of PIP2:3PS and ATP; and ADP-Glo kit (containing 10 mM of MgCl2).
(§3) Among them, the buffer components are: 50 mM of Hepes (pH 7.2 to pH 7.5), 3 mM of MgCl2, 1 mM of EGTA, 0.03% of CHAPS, 100 mM of NaCl, and 2 mM of DTT;
(§4) Preparation of compound: Compound 1 of the present application was completely dissolved in DMSO and diluted to a specific concentration so that the final concentration of the compound in the incubation system was 1000 nM, 333 nM, 111 nM, 37 nM, 12.4 nM, 4.1 nM, 1.4 nM, 0.46 nM, 0.15 nM and 0.05 nM (PI3Kα); 30,000 nM, 10,000 nM, 3333 nM, 1111 nM, 370 nM, 123 nM, 41 nM, 13.7 nM, 4.6 nM and 1.5 nM (PI3Kβ, PI3Kγ). […]

PI3Kβ = PI3Kβ (Homo sapiens, UniProt P42338); experiment: PI3Kβ kinase assay (ADP-Glo, luminescence); assay type: biochemical; conditions: final ATP concentration 10 μM; read-out: IC50 of Compound PI3K β
PI3Kβ, sequence (P42338 whole entry): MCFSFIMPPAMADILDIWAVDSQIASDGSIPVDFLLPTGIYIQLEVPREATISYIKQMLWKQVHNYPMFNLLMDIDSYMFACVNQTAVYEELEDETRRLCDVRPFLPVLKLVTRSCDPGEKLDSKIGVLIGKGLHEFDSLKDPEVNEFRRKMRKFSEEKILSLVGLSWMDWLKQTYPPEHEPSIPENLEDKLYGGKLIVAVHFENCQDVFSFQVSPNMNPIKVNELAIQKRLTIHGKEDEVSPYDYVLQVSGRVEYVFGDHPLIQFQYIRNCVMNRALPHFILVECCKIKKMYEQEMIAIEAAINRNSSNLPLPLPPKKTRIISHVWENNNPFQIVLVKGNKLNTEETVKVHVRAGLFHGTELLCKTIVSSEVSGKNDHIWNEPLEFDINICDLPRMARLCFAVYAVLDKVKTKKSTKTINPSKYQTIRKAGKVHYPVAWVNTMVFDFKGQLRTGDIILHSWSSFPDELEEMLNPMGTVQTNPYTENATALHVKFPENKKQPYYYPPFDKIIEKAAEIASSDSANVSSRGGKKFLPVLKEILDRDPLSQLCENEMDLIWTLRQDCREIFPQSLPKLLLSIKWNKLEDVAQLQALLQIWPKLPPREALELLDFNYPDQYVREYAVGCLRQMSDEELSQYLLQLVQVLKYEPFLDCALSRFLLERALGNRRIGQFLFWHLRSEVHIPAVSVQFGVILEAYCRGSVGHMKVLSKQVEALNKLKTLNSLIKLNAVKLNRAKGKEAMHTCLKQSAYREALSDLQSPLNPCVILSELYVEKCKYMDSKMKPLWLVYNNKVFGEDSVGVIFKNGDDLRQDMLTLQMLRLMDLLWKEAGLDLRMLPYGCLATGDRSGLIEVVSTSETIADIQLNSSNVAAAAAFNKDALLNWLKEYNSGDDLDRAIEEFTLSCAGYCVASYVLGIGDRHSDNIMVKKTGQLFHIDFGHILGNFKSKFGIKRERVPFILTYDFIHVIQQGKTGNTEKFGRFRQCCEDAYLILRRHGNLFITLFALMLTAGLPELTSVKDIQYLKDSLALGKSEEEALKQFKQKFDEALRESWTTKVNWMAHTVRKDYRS
PI3Kβ, sequence (P27986 whole entry partner): as the sequence (P27986 whole entry partner) above
Description: as §1, §2, §3, §4

PI3Kγ = PI3Kγ (Homo sapiens, UniProt P48736); experiment: PI3Kγ kinase assay (ADP-Glo, luminescence); assay type: biochemical; conditions: final ATP concentration 10 μM; read-out: IC50 of Compound PI3K γ
PI3Kγ, sequence (P48736 whole entry): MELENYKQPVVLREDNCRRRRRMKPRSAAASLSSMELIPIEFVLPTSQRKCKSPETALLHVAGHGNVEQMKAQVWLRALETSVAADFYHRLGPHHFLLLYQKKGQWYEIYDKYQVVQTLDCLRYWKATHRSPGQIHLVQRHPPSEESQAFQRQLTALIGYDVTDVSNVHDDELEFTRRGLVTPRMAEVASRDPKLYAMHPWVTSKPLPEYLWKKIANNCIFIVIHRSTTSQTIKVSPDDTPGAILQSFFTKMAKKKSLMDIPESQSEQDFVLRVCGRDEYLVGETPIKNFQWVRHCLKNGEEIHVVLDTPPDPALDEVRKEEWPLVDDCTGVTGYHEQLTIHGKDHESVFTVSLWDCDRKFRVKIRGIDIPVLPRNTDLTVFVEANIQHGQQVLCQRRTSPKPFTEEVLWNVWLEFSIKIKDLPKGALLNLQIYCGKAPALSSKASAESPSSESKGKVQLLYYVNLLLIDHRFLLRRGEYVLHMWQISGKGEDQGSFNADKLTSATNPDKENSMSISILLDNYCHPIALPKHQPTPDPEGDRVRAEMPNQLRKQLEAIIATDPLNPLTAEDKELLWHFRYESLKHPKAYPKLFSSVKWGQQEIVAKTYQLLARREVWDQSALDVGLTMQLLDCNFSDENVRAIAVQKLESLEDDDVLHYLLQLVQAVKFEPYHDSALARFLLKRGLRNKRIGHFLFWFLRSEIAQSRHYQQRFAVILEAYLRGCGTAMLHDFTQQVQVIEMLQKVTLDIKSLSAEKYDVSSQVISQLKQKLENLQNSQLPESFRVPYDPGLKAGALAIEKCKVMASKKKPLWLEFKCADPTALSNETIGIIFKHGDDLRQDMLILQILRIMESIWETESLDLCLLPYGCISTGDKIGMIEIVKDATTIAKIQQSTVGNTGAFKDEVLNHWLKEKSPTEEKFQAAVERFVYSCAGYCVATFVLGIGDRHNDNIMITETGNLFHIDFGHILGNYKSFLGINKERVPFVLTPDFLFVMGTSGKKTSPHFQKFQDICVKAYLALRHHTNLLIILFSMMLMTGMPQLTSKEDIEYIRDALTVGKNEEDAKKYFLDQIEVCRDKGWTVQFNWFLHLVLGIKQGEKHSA
Description: as §1, §2, §3, §4

MCF-7 cells = experiment: Cell proliferation assay (CellTiter Glo), MCF-7; assay type: cell-based; conditions: Homo sapiens, MCF7; 120 h incubation; read-out: IC50 of compounds on MCF-7 cells
Description: Method: CellTiter Glo assay method was used to observe the growth inhibitory effect of Compound 1 of the present application on human tumor cells MCF-7 and HGC-27 cultured in vitro.
Assay method: MCF-7 cells were suspended in DMEM medium to form a cell suspension, and the cell concentration was adjusted to 25,000 cells/mL. HGC-27 cells were suspended in RPMI-1640 medium to form a cell suspension, and the cell concentration was adjusted to 5,000 cells/mL. 100 μL of cell suspension was added to a 96-well plate and placed in a CO2 incubator overnight. Compound 1 was completely dissolved in DMSO and 3-fold gradient dilution was performed to obtain a total of 10 concentrations. The 10 concentrations of the compounds to be tested or the DMSO negative control were transferred to the wells containing 100 μL of medium to give final concentrations of the compounds of 30,000 nM, 10,000 nM, 3,333 nM, 1,111 nM, 370 nM, 123 nM, 41 nM, 13.7 nM, and 4.6 nM, respectively. Incubation was performed at 37° C. under 5% CO2 for 96 h for HGC-27 cells and 120 h for MCF-7 cells. Then 100 μL of CellTiter-Glo reagent was added to the above 96-well plate and placed at room temperature for 10 min to stabilize the luminescence signal. The RLU (relative luminescence unit) value was recorded using a VICTOR™ X5 instrument, and then the IC50 value was calculated. […]

[5] = Stability test of crystal form C (influencing factor, accelerated, long-term); assay type: physicochemical
From the text: The conditions and methods for the stability test of crystal form C of Compound 1 are mainly based on the requirements of “9001 Guidelines for Stability Test of APIs and Pharmaceutical Preparations” of the fourth part general rules of the 2020 edition of the Chinese Pharmacopoeia, as shown in Table 4. [table]

[6] = Pharmacokinetic assay in rats, single gavage; assay type: in vivo; conditions: rat, plasma, po, male SD rats, 10 mg/kg
Description: Medicament preparation: the control compound, crystal form M of Compound 1 and amorphous form of Compound 2 obtained in Example 1 were weighed and prepared into a 10 mg/mL of solution to be tested in a mixture of 10% of DMSO, 10% of Solutol and 80% of saline; crystal form C of Compound 1 was added into a mixture of 5% of solutol and 95% of 0.5% CMCNa to prepare a 10 mg/mL of solution to be tested.
Assay method: 15 male SD rats with weights: 150 g to 300 g were randomly divided into 5 groups of 3 rats each, and […] of the Example compound was administered by single gavage. The blood was collected through the orbital venous plexus at the designated time points (5 min, 15 min, 30 min, 1 h, 2 h, 4 h, 7 h and 24 h) respectively, and the plasma was separated and stored in a refrigerator at −80° C. for spare use. After precipitation of proteins from the above plasma samples by acetonitrile, the supernatant was extracted and mixed with water at 1:1, and 10 μL of which was taken for LC-MS/MS detection.

[7] = High temperature of 40° C., Day 5
[8] = High temperature of 40° C., Day 30
[9] = High temperature of 60° C., Day 5
[10] = High temperature of 60° C., Day 30

Row | Compound | Total impurity content of the related material ([1]; Day 0) [%] | Total impurity content of the related material ([1]; High humidity of 75%, Day 5) [%] | Total impurity content of the related material ([1]; High humidity of 75%, Day 30) [%] | Total impurity content of the related material ([1]; High humidity of 92.5%, Day 5) [%] | Total impurity content of the related material ([1]; High humidity of 92.5%, Day 30) [%] | Total impurity content of the related material [1, 7] [%] | Total impurity content of the related material [1, 8] [%] | Total impurity content of the related material [1, 9] [%] | Total impurity content of the related material [1, 10] [%] | Result: crystal form after tabletting [2] | XRPD pattern after grinding [3] | mass gain (DVS) (DVS assay) [%] | further results
1 | CC(C)[C@H]1C(=O)N(C2CC2)C(=O)N1c1cn2c(n1)-c1ccc(N3CCC[C@H]3C(N)=O)cc1OCC2 [Crystal Form M, (S)-1-(2-((S)-3-cyclopropyl-5-isopropyl-2,4-dioxoimidazolidin-1-yl)-5,6-dihydrobenzo[f]imidazo[1,2-d][1,4]oxazepin-9-yl)pyrrolidine-2-carboxamide] | 0.12 | 0.39 | 0.61 | 0.42 | 0.61 | 0.55 | 0.53 | 0.70 | 0.64 |  |  |  | 
2 | CC(C)[C@H]1C(=O)N(C2CC2)C(=O)N1c1cn2c(n1)-c1ccc(N3CCC[C@H]3C(N)=O)cc1OCC2 [Crystal Form B-1, (S)-1-(2-((S)-3-cyclopropyl-5-isopropyl-2,4-dioxoimidazolidin-1-yl)-5,6-dihydrobenzo[f]imidazo[1,2-d][1,4]oxazepin-9-yl)pyrrolidine-2-carboxamide] | 0.24 | 0.25 | 0.29 | 0.23 | 0.24 | 0.26 | 0.34 | 0.38 | 0.43 | Form B-1 | remained consistent with the original patterns | 1.9 | 
3 | Cc1nc(-c2cn3c(n2)-c2ccc(-c4cnn(C(C)(C)C(N)=O)c4)cc2OCC3)n(C(C)C)n1 [Taselisib] |  |  |  |  |  |  |  |  |  |  |  |  | selectivity for the α-subunit compared to the β-subunit [4]: 31 fold
4 | CC(C)[C@H]1C(=O)N(C2CC2)C(=O)N1c1cn2c(n1)-c1ccc(N3CCC[C@H]3C(N)=O)cc1OCC2 [Compound 1, (S)-1-(2-((S)-3-cyclopropyl-5-isopropyl-2,4-dioxoimidazolidin-1-yl)-5,6-dihydrobenzo[f]imidazo[1,2-d][1,4]oxazepin-9-yl)pyrrolidine-2-carboxamide] |  |  |  |  |  |  |  |  |  |  |  |  | IC50 (PI3Kα): ≤ 0.005 µM; IC50 (PI3Kβ): > 0.6 µM; IC50 (PI3Kγ): > 0.6 µM; IC50 (MCF-7 cells): 0.047 µM
5 | CC(C)[C@H]1C(=O)N(C2CC2)C(=O)N1c1cn2c(n1)-c1ccc(N3CCC[C@H]3C(N)=O)cc1OCC2 [Crystal Form C, (S)-1-(2-((S)-3-cyclopropyl-5-isopropyl-2,4-dioxoimidazolidin-1-yl)-5,6-dihydrobenzo[f]imidazo[1,2-d][1,4]oxazepin-9-yl)pyrrolidine-2-carboxamide] | 0.07 | 0.07 | 0.07 | 0.07 | 0.07 | 0.07 | 0.10 | 0.08 | 0.10 | Form C | remained consistent with the original patterns | 0.7 | change of testing indexes compared with day 0, long-term test ([5]; 25° C. ± 2° C., RH60% ± 5%, 6 months): no significant change; change of testing indexes compared with day 0, accelerated test ([5]; 40° C. ± 2° C., RH75%, 6 months): no significant change; change in characteristics, content, crystal form and isomer compared with day 0 ([5]; uncovered, high temperature (40° C., 60° C.) or high humidity (75%, 92.5%), 30 days): no significant change; AUC [6]: 36600 ng·h/mL; Cmax [6]: 3700 ng/mL
